{"source": "patent US20150306096A1", "about": "“8'-HYDROXY-DIHYDROERGOTAMINE COMPOUNDS AND COMPOSITIONS” (MAP Pharmaceuticals, Inc., priority 2012, published 2015)", "assay_in_all_cases": "Radioligand competition binding and kinetics, CHO-K1 membranes", "key": {"human D2L receptor": {"target": "T1, human D2L receptor (Homo sapiens, UniProt P14416)", "T1 construct": "purchased Euroscreen; host or cells: CHO-K1", "T1 sequence (P14416 whole entry)": "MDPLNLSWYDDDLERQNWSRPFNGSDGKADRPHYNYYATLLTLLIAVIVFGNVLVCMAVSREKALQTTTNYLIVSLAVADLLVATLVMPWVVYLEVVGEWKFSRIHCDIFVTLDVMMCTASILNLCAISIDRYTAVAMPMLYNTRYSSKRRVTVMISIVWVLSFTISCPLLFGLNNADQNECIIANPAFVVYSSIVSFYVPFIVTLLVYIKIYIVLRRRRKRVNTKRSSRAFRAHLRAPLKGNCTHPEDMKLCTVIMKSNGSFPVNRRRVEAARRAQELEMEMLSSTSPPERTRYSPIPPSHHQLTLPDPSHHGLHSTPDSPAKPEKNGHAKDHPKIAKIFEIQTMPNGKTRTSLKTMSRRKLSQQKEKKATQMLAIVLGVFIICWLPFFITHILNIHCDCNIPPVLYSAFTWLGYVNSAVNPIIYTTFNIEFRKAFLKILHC", "experimental": "(§1) For kinetics of radioligand competitive binding, serial dilutions were performed from master solution in 100% DMSO to obtain intermediate concentrations 200-fold higher than the concentrations to be tested. Each test sample was diluted 100-fold in the assay buffer and dispensed into the test plate.\nD2L Radioligand Binding Assay\nAssay buffer: 25 mM HEPES (pH 7.4), 5 mM MgCl2, 1 mM CaCl2, BSA protease free 0.5% Washing buffer: 25 mM HEPES (pH 7.4), 5 mM MgCl2, 1 mM CaCl2 Membrane: recombinant CHO-K1-D2L membranes thawed on ice and diluted in assay buffer (2 μg/well)\nLigand: Risperidone (Tocris Bioscience, 2865)\nRadioligand: [^3H]-Spiperone (TRK818, diluted in assay buffer for a final concentration of 3 nM) Filter plate: GF/B Unifilter plate (Perkin Elmer, 6005177) presoaked in 0.5% PEI for 2 hours at RT.\n(§2) Determination of the Kon constant. Radioligand association kinetics on each receptor were performed by adding in the wells of a 96 well plate 50 μL of radioligand and 50 μL of membrane extracts. The samples were incubated for the times reported in Table 3 below at a temperature optimized for each receptor and filtered over a filter plate. After washing the filters 5 times with 0.5 mL of ice-cold washing buffer, 50 μL of Microscint 20 (Packard) were added to the filters and the plates were incubated 15 min on an orbital shaker and then counted for 1 min/well. This allowed determination of the kobs for each radioligand. Association kinetics were performed at 5 different radioligand concentrations optimized for each receptor (see Table 3 below) to determine 5 different kobs. The different kobs were then plotted against the [radioligand] and the K. was calculated using the following equation: kon=(kobs−koff)[radioligand].\n(§3) Determination of the Koff constant. Radioligand dissociation kinetics on each receptor were performed by adding in the wells of a 96 well plate 45 μL of radioligand and 45 μL of membrane extracts. The samples were incubated as reported in Table 4 below at a temperature optimized for each receptor until binding equilibrium was reached as determined by the association kinetics experiment. Then, 100 μL of cold competitor (reference ligand) were added at a 200 fold excess (final concentration) for the times reported in Table 4 at the optimized temperature. The samples were then filtered over a filter plate. After washing the filters 5 times with 0.5 mL of ice-cold washing buffer, 50 μL of Microscint 20 (Packard) were added to the filters and the plates were incubated 15 min on an orbital shaker and then counted for 1 min/well. This allowed determination of the koff for each radioligand.\n(§4) Determination of IC50 and Ki constant for each test compound. Radioligand competition binding on each receptor were performed by adding in the wells of a 96 well plate […] of test compound at increasing concentration as reported in Table 5 below, 25 μL of radioligand and 25 μL of membrane extracts. The samples were incubated for 60 min (or 4 hours for a second experiment on 5-HT2B receptors) at a temperature optimized for each receptor and then filtered over a filter plate. After washing the filters 5 times with 0.5 mL of ice-cold washing buffer, 50 μL of Microscint 20 (Packard) were added to the filters and the plates were incubated 15 min on an orbital shaker and then counted for 1 min/well. The test compounds were tested in duplicate at the nanomolar concentrations reported below in Table 5.\nDetermination of kon and koff constants for each test compound. Each compound was first assessed in a pilot experiment to evaluate its effect on the kinetic binding of each receptor-radioligand pair. These pilot experiments were performed at on compound concentration and were composed of 10 time-points measurements in duplicate (2, 5, 10, 20, 30, 45, 60, 90, 120 and 150 minutes). […]"}, "human 5-HT1D receptor": {"target": "T2, human 5-HT1D receptor (Homo sapiens, UniProt P28221)", "T2 construct": "purchased Euroscreen; host or cells: CHO-K1", "T2 sequence (P28221 whole entry)": "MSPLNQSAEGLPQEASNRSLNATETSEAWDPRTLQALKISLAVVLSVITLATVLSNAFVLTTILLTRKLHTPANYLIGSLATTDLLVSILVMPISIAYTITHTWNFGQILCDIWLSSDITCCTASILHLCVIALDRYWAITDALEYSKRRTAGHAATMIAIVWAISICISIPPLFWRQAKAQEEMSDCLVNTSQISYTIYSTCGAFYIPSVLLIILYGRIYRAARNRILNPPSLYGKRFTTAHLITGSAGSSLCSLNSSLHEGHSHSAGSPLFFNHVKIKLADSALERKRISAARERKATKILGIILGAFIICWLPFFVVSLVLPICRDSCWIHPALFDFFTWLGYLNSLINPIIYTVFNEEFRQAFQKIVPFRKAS", "experimental": "as §1\n5-HT1D Radioligand Binding Assay\nAssay buffer: 50 mM Tris (pH 7.4), 4 mM CaCl2, 0.1% ascorbic acid\nWashing buffer: 50 mM Tris (pH 7.4)\nMembrane: recombinant CHO-K1-5-HT1D membranes thawed on ice and diluted in assay buffer (10 μg/well)\nLigand: 5-HT (Sigma, H-9523)\nRadioligand: [^3H]-CT (Perkin Elmer, TRK1038, diluted in assay buffer for a final concentration of 0.5 nM) Filter plate: GF/B Unifilter plate (Perkin Elmer, 6005177) presoaked in 0.5% PEI for 2 hours at RT.\nas §2, §3, §4\n(§5) Determination of kon and koff constants for each test compound. Each compound was first assessed in a pilot experiment to evaluate its effect on the kinetic binding of each receptor-radioligand pair. These pilot experiments were performed at on compound concentration and were composed of 10 time-points measurements in duplicate (2, 5, 10, 20, 30, 45, 60, 90, 120 and 150 minutes)."}, "human 5-HT1B receptor": {"target": "T3, human 5-HT1B receptor (Homo sapiens, UniProt P28222)", "T3 construct": "purchased Euroscreen; host or cells: CHO-K1", "T3 sequence (P28222 whole entry)": "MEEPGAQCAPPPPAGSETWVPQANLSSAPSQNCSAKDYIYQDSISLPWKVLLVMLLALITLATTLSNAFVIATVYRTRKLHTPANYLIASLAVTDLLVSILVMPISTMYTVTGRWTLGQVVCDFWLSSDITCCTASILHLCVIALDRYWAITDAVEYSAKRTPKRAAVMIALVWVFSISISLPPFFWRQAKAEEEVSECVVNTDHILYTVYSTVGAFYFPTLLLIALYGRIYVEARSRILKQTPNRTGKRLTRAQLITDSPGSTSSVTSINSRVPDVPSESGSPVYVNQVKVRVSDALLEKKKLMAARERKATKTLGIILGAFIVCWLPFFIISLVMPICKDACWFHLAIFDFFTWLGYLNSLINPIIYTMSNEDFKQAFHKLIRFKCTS", "experimental": "as §1\n5-HT1B Radioligand Binding Assay\nAssay buffer: 50 mM Tris (pH 7.4), 12.5 mM MgCl2, 0.1% ascorbic acid, 1 mM EDTA Washing buffer: 50 mM Tris (pH 7.4) Membrane: recombinant CHO-K1-5-HT1B membranes thawed on ice and diluted in assay buffer (7 μg/well)\nLigand: 5-CT (Tocris, 0458)\nRadioligand: [^3H]-CT (Perkin Elmer, TRK1038, diluted in assay buffer for a final concentration of 0.6 nM) Filter plate: GF/B Unifilter plate (Perkin Elmer, 6005177) presoaked in 0.5% PEI for 2 hours at RT.\nas §2, §3, §4, §5"}, "human 5-HT1A receptor": {"target": "T4, human 5-HT1A receptor (Homo sapiens, UniProt P08908)", "T4 construct": "purchased Euroscreen; host or cells: CHO-K1", "T4 sequence (P08908 1-422)": "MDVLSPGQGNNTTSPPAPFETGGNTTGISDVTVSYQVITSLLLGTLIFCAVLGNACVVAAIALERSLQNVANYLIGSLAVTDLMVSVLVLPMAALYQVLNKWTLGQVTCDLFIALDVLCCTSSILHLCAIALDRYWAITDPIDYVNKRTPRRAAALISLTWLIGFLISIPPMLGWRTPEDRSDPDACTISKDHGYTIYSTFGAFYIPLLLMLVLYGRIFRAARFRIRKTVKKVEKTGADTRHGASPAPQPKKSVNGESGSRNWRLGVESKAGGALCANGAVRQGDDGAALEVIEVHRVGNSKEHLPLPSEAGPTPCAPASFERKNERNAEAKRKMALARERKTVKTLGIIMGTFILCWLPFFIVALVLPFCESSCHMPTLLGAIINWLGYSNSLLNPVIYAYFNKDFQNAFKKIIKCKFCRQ", "experimental": "as §1\nas §2, with “Association kinetics were performed at 5 different radioligand concentrations optimized for each receptor (see Table 3 below) to determine 5 different kobs.” left out\nDetermination of the Koff constant. […] The samples were incubated as reported in Table 4 below at a temperature optimized for each receptor until binding equilibrium was reached as determined by the association kinetics experiment. […] After washing the filters 5 times with 0.5 mL of ice-cold washing buffer, 50 μL of Microscint 20 (Packard) were added to the filters and the plates were incubated 15 min on an orbital shaker and then counted for 1 min/well. […]\nDetermination of IC50 and Ki constant for each test compound. […] After washing the filters 5 times with 0.5 mL of ice-cold washing buffer, 50 μL of Microscint 20 (Packard) were added to the filters and the plates were incubated 15 min on an orbital shaker and then counted for 1 min/well. […]\nDetermination of kon and koff constants for each test compound. Each compound was first assessed in a pilot experiment to evaluate its effect on the kinetic binding of each receptor-radioligand pair. […]"}}, "note": "Like-named read-outs stand apart in the source and are kept apart here.", "data": [{"smiles": "CN1C[C@H](C(=O)N[C@]2(C)O[C@@]3(O)[C@@H]4CCC(O)N4C(=O)[C@H](Cc4ccccc4)N3C2=O)C[C@@H]2c3cccc4[nH]cc(c34)C[C@H]21", "note": "(some centres unmarked) [8′-OH DHE, 8′-Hydroxy-Dihydroergotamine]", "values": [{"measurement": "Avg Dissociation half-life", "setting": "human D2L receptor; D2L", "result": 0.15, "unit": "h"}, {"measurement": "Avg Koff", "setting": "human D2L receptor; D2L", "result": 0.00127, "unit": "s⁻¹"}, {"measurement": "IC50", "setting": "human D2L receptor; D2L, [3H]-Spiperone, read-out: IC50 from binding assay", "result": 297, "unit": "nM"}, {"measurement": "Avg Dissociation half-life", "setting": "human 5-HT1D receptor; 5-HT1D", "result": 1.10, "unit": "h"}, {"measurement": "Avg Koff", "setting": "human 5-HT1D receptor; 5-HT1D", "result": 0.000175, "unit": "s⁻¹"}, {"measurement": "IC50", "setting": "human 5-HT1D receptor; 5-HT1D, [3H]-CT, read-out: IC50 from binding assay", "result": 0.8, "unit": "nM"}, {"measurement": "Avg Dissociation half-life", "setting": "human 5-HT1B receptor; 5-HT1B", "result": 1.94, "unit": "h"}, {"measurement": "Avg Koff", "setting": "human 5-HT1B receptor; 5-HT1B", "result": "9.83e-05", "unit": "s⁻¹"}, {"measurement": "IC50", "setting": "human 5-HT1B receptor; 5-HT1B, [3H]-CT, read-out: IC50 from binding assay", "result": 0.77, "unit": "nM"}, {"measurement": "IC50", "setting": "human 5-HT1A receptor; 5-HT1A, [3H]-WAY100635, read-out: IC50 from binding assay", "result": 0.43, "unit": "nM"}]}, {"smiles": "CN1C[C@H](C(=O)N[C@]2(C)O[C@@]3(O)[C@@H]4CCCN4C(=O)[C@H](Cc4ccccc4)N3C2=O)C[C@@H]2c3cccc4[nH]cc(c34)C[C@H]21", "note": "[DHE, Dihydroergotamine]", "values": [{"measurement": "IC50", "setting": "human D2L receptor", "result": 231, "unit": "nM"}, {"measurement": "Avg Dissociation half-life", "setting": "human D2L receptor; D2L", "result": 0.24, "unit": "h"}, {"measurement": "koff", "setting": "human D2L receptor; D2L", "result": 0.000792, "unit": "s⁻¹"}, {"measurement": "IC50", "setting": "human 5-HT1D receptor", "result": 0.65, "unit": "nM"}, {"measurement": "Avg Dissociation half-life", "setting": "human 5-HT1D receptor; 5-HT1D", "result": 1.28, "unit": "h"}, {"measurement": "koff", "setting": "human 5-HT1D receptor; read-out: Avg Koff", "result": 0.00015, "unit": "s⁻¹"}, {"measurement": "IC50", "setting": "human 5-HT1B receptor", "result": 0.55, "unit": "nM"}, {"measurement": "Avg Dissociation half-life", "setting": "human 5-HT1B receptor; 5-HT1B", "result": 1.38, "unit": "h"}, {"measurement": "koff", "setting": "human 5-HT1B receptor; read-out: Avg Koff", "result": 0.00014, "unit": "s⁻¹"}, {"measurement": "IC50", "setting": "human 5-HT1A receptor", "result": 0.27, "unit": "nM"}]}]}
